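Method: 48-hour compound exposure of cells in 96-well plates, five concentrations, linear interpolation of endpoints. GI50 is the concentration that inhibits growth by half. TGI marks complete inhibition of growth.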

Holding throughout (assay): NCI-60 cell line screen, 48 h
Assay [1] has as its system K-562 leukemia.
The test system of assay [2] is HT29 colon.
The test system of assay [3] is PC-3 prostate.
Assay [4] relates to BT-549 breast.
Assay [5] has as its system U251 CNS.
The subject of assay [6] is CAKI-1 renal.
For assay [7], the system named is UACC-62 melanoma.
The test system of assay [8] is NCI-H460 lung.
Assay [9] relates to NCI-H23 lung.
For assay [10], the system named is T-47D breast.

Turning to `CC1CCC(C#N)(NOC2=NCCN2)CC1` (stereo not given), the GI50 in assay [1] is 29.8 µM; in assay [2] it was over 100 µM; in [3], over 100 µM; in assay [4], 31.3 µM; in [5] it was 15.8 µM; in assay [6], 16.2 µM. The GI50 in assay [7] was 25.4 µM; in [8], 37.7 µM; in [9], 34 µM. Moreover, the TGI in [1] was over 100 µM; in assay [2], over 100 µM; in assay [3], over 100 µM; in assay [4], over 100 µM; in assay [5], 32.4 µM; in assay [6] it was 33.8 µM. Besides, the TGI in [7], in [8] and in assay [9] was over 100 µM in each case.
As for `COc1cc(C(=O)/C=C/c2c(-c3cccs3)nc3ccccn23)cc(OC)c1OC`, the GI50 in assay [2] is 2.09 µM; in assay [10], 1.72 µM; in [4], 1.86 µM; in assay [5], 1.66 µM; in assay [6], 2.31 µM; in [7], 1.61 µM. Moreover, the GI50 in assay [8] was 1.42 µM; in assay [9], 2.2 µM. The TGI turned out to be 4.19 µM in assay [2]; 6.79 µM in assay [10]; 5.55 µM in assay [4]; 6.03 µM in assay [5]; 8.14 µM in assay [6]; 3.57 µM in [7]. Also, the TGI turned out to be 2.84 µM in [8] and 5.33 µM in assay [9].
Turning to `CN(C)CCN1C(=O)c2cccc3c(-c4ccc5ncn(C6CCCCC6)c5c4)ccc(c23)C1=O`, the GI50 in assay [1] was 1.27 µM; in assay [2], 0.938 µM; in assay [10], 3.16 µM; in [3] it was 1.63 µM; in assay [4] it was 3.95 µM; in [5], 2 µM. In addition, the GI50 in assay [6] is 1.27 µM; in [8], 1.01 µM; in assay [9], 1.35 µM. Moreover, the TGI in assay [1] was over 100 µM; in assay [2], 8.11 µM; in assay [10], 23.4 µM; in assay [3], 5.75 µM; in assay [4], 16.2 µM; in assay [5] it was 11.5 µM. The TGI in assay [6] stood at 6.67 µM; in assay [8], 7.41 µM; in assay [9] it was 3.82 µM.
Consider `Nc1n[n+]([O-])c2cnccc2[n+]1[O-]`, for which the TGI in assay [2], in [10], in [3], in [4], in assay [5] and in [6] was over 100 µM throughout. Also, the TGI is 84.9 µM in [7], over 100 µM in [8] and over 100 µM in [9].
As for `CC(C)(C)n1cc(-c2ccnc(NCCCNS(=O)(=O)c3ccc(Cl)cc3)c2)c(-c2cccc(O)c2)n1`, the GI50 is 1.82 µM in [10]; 1.36 µM in assay [3]; 1.67 µM in assay [4]; 1.62 µM in assay [5]; 2.06 µM in assay [6]; 1.65 µM in [7]. Further, the GI50 in assay [8] is 1.94 µM; in assay [9], 1.68 µM. For the same compound, the TGI was found to be 5.51 µM in assay [10]; 3.69 µM in [3]; 3.16 µM in [4]; 3.42 µM in assay [5]; 5.35 µM in [6]; 3.29 µM in assay [7]. Besides, the TGI was found to be 3.92 µM in assay [8] and 3.48 µM in assay [9].
For the compound `C=C(C)C1CCC2(CO)C(O)CC3(C)C(CCC4C5(C)CCC(O)C(C)(C)C5CCC43C)C12` (stereo not given), the TGI in assay [1] is 33.3 µM; in assay [2], 54.7 µM; in assay [10], 11.3 µM; in [3], 60.3 µM; in [4] it was over 100 µM; in assay [5] it was 9.96 µM. For the same compound, the results for the TGI in assay [6] and in [8] were over 100 µM and 64.3 µM, respectively.
For `CCOC(CN(C)C(=O)OCC(Cl)(Cl)Cl)OCC`, the TGI in [1], in [2], in [3], in assay [4], in assay [5] and in assay [6] was over 100 µM throughout. For the same compound, the TGI in assay [7], in assay [8] and in assay [9] was over 100 µM throughout.
`O=C1C(Cl)=C(Nc2ccc3c(c2NC2=C(Cl)C(=O)c4ccccc4C2=O)C(=O)c2ccccc2C3=O)C(=O)c2ccccc21`: the GI50 in assay [1] is 2.75 µM; in assay [2], 3.12 µM; in [10], 2.19 µM; in assay [3] it was 1.92 µM; in assay [4] it was 1.36 µM; in [5], 2.58 µM. The GI50 in assay [7] is 1.3 µM; in [8] it was 1.86 µM; in assay [9] it was 1.08 µM. Further, the TGI is 7.81 µM in assay [1]; 8.54 µM in assay [2]; 5.99 µM in assay [10]; 12.5 µM in assay [3]; 2.83 µM in [4]; 9.38 µM in assay [5]. For the same compound, the TGI in assay [7] worked out at 2.9 µM; in assay [8], 5.85 µM; in assay [9], 4.1 µM.
`CCN1CCN(c2cc(C)nc(NCc3cc(Nc4ccnc5cc(Cl)ccc45)ccc3F)n2)CC1`: the GI50 in assay [1] was 1.04 µM; in [2], 0.957 µM; in [10] it was 1.42 µM; in assay [3] it was 5.02 µM; in assay [4], 5.36 µM; in assay [5] it was 3.28 µM. Besides, the GI50 in [6] was 2.82 µM; in [8] it was 2.83 µM; in assay [9], 5.79 µM. Also, the TGI in assay [1] is over 100 µM; in assay [2], 5.32 µM; in assay [10], 4.31 µM; in assay [3], 69.5 µM; in assay [4] it was 21.8 µM; in [5], 12.6 µM. Further, the results for the TGI in assay [6], in assay [8] and in [9] were 17.1 µM, 12.1 µM and over 100 µM, respectively.

These data come from PubChem BioAssay (NCI).
